Results as given in PMC9180621, “Preparation of Novel Pyrazolo[4,3-e]tetrazolo[1,5-b][1,2,4]triazine Sulfonamides and Their Experimental and Computational Biological Studies” (International Journal of Molecular Sciences, 2022).

How the values were obtained:
[1] = test system: PC-3 cells; assay: MTT assay, cell viability; type: cell-based, human; conditions: Homo sapiens; PC-3, 72 h incubation, MTT, ± SD
Protocol: (§1) A statistical program (Graphpad Prism 7) was used to analyze obtained data (MTT test). The dose–response analysis was performed to estimate the inhibitory concentration (IC50) of the tested compounds. The IC50 value is defined as a concentration of the tested compound that leads to a reduction in cell pool viability by 50% compared to the negative control (accepted as 100%). % cell viability=Absorbance value of treated cells−Absorbance value of blank/Absorbance value of untreated cells−Absorbance value of blank×100%
(§2) To estimate cell viability following 72 h incubation with the tested MM-compounds (MM134, MM136, MM137, and MM139), the MTT test was used according to the PN-EN ISO 10993-5. It is a quantitative method based on the tetrazolium yellow dye MTT [3(4,5-dimethyl-2-thiazolyl)-2,5-diphenyl-2H-tetrazolium bromide], which is converted by living cells to a purple product, formazan, the concentration of which was measured colorimetrically. The MTT assay was performed according to the procedure described by Mosmann with modifications. At a density of approximately 8 × 10^3 cells per 100 µL/well, 96-well plates were seeded. Following the given incubation period in controlled conditions (37 °C; 5% CO2), cells were exposed to different concentrations of tested compounds in DMSO (range 0.05–3 µM) in a volume of 100 µL medium per well. Final solvent concentration of DMSO was < 0.5% v/v. The experimental design included vehicle controls and blanks (wells without cells).
(§3) After 72 h of incubation of cells with tested MM-compounds, 20 µL of MTT tetrazolium salt (5 mg/mL in PBS) was added to each well, and plates were incubated once again in a humidified atmosphere for 3 h (37 °C; 5% CO2). Following the incubation time, the solutions were removed and 100 µL of DMSO was added to dissolve the formazan complexes. Subsequently, a spectrophotometer (microplate reader Power Wave XS BioTek Instruments, Inc., Winooski, VT, USA) reading was performed at 570 nm. The experiments were performed in duplicates.

[2] = test system: BxPC-3 cells; assay: Dual acridine orange/ethidium bromide (AO/EB) fluorescent staining, apoptosis; type: cell-based, human; conditions: BxPC-3, IC50 concentration, 24 h incubation
Protocol: (§4) Data are presented as mean percentage of apoptotic cells (early and late apoptotic) ± SD values. The differences between the experimental samples and vehicle control were evaluated by the ANOVA test followed by Tukey’s test (p < 0.05). Experiments were performed in triplicate. For flow cytometry analysis with Annexin V-FITC staining, the approximate number of analyzed cells was (N = 1 × 10^4), contrasting with the dual acridine orange/ethidium bromide (AO/EB) fluorescent staining (N = 200). Acridine orange/ethidium bromide (AO/EB) staining is used to detect nuclear alterations and the development of apoptotic bodies, which are both indicative of apoptosis. Acridine orange penetrates into living cells, emitting green fluorescence after intercalation into DNA. The second dye, ethidium bromide, emits red fluorescence in cells with an altered cell membrane. The cells are divided into three categories as follows: living cells (green nucleus with red orange cytoplasm); apoptotic (green irregularly nuclei with chromatin condensation or fragmentation); and necrotic cells (uniformly orange-stained cell nuclei). Programmed cell death is measured by counting the number of cells that undergo apoptosis under a fluorescent microscope. BxPC-3 and PC-3 cells were seeded at an appropriate density on 12-well plates (Table 9). […] Following the incubation period, cells were incubated with fluorochromes (AO/EB: 100 µM; 1:1, v/v) for 5 min at 37 °C in the dark. Viable, apoptotic, or necrotic cells were distinguished using this method based on differential uptake of fluorescent DNA-binding dyes (AO/EB) with the structural aspect of chromatin condensation in the stained nucleus. Cells were analyzed using a fluorescence microscope (Olympus BX60 F5 Olympus Optical Co., Ltd., Nagano, Japan) at 360 nm. The results were obtained from three independent experiments.

[3] = test system: PC-3 cells; assay: as above; type: cell-based, human; conditions: PC-3, 48 h incubation, 2xIC50 concentration, AO/EB, ± SD; control 1.5 ± 0.7%
Protocol: as §4

[4] = test system: BxPC-3 cells; assay: MitoTracker Red, mitochondria membrane potential; type: cell-based, human
Protocol: (§5) The fitness of the mitochondria and changes in MMP were assessed using MitoTracker Red. Data for experimental groups were presented as mean percentage of control group fluorescence intensity ± SD value (Figure 11, Table 2). Mitotracker Red is deposited in the mitochondrial matrix in response to changes in the inner transmembrane potential of the mitochondria. The intensity of fluorescence reflects the fitness of the mitochondria and alters with changes in MMP [91]. BxPC-3 and PC-3 cells were seeded at appropriate density on a 96-well plates (Table 9). […] After appropriate incubation time, cells were incubated with MitoTracker Red (0.1 µM/200 µL PBS/well) for 40 min. Afterward, MitoTracker Red solution was removed from the wells and PBS (200 µL/well) was added. Fluorescence was read at an […] of 581/644 nm using the SpectraMax® i3x Multi-Mode Detection Platform.

[5] = test system: PC-3 cells; assay: MitoTracker Red, mitochondria membrane potential; type: cell-based, human
Protocol: as §5

[6] = test system: HCT-116 cells; assay: MTT assay, cell viability; type: cell-based; conditions: Homo sapiens, HCT-116, 72 h incubation, ± SD
Protocol: as §1, §2, §3

[7] = test system: BxPC-3 cells; assay: MTT assay, cell viability; type: cell-based; conditions: Homo sapiens, BxPC-3, 72 h incubation, ± SD
Protocol: as §1, §2, §3

[8] = test system: L929 cells; assay: MTT assay, cell viability; type: cell-based; conditions: L929 normal mouse fibroblasts, 72 h incubation, ± SD
Protocol: as §1, §2, §3

[9] = test system: WI-38 cells; assay: MTT assay, cell viability; type: cell-based; conditions: WI-38 normal human fibroblasts, 72 h incubation, ± SD
Protocol: as §1, §2, §3

[10] = test system: BxPC-3 cells; assay: Annexin V-FITC/propidium iodide flow cytometry, apoptosis; type: cell-based, human; conditions: IC50 concentration, Annexin V-FITC, ± SD
Protocol: Data are presented as mean percentage of apoptotic cells (early and late apoptotic) ± SD values. The differences between the experimental samples and vehicle control were evaluated by the ANOVA test followed by Tukey’s test (p < 0.05). Experiments were performed in triplicate. For flow cytometry analysis with Annexin V-FITC staining, the approximate number of analyzed cells was (N = 1 × 10^4), contrasting with the dual acridine orange/ethidium bromide (AO/EB) fluorescent staining (N = 200).
The Annexin V-FITC Apoptosis Detection Kit was used to estimate the apoptosis induction following 24 and 48 h incubation with the tested MM-compounds. During apoptosis, phosphatidylserine is transformed from the inner cell membrane to the cell surface, which can be detected by the annexin-FITC complex. The addition of propidium iodide to the reaction mixture allows the assessment of cell membrane integrity. Using flow cytometry analysis, four subpopulations of cells can be distinguished: alive (non-stained), necrotic (propidium iodide stained), early apoptotic (annexin V stained cells), or late-apoptotic cells (propidium iodide and annexin V stained). BxPC-3 and PC-3 cells were seeded at appropriate density on a 6-well plate (Table 9).
The experimental design included vehicle control (final solvent concentration was < 0.5% v/v DMSO), and cells treated with 2 µM SN-38 (active metabolite of irinotecan) used as a positive compensation control. Cells were left for incubation for another 24 or 48 h (37 °C; 5% CO2). After exposure, cells were trypsinized and transferred to cytometric tubes, left for 40 min, and centrifuged at 1400 rpm for 10 min at 4 °C. Afterward, the supernatant was removed, and the precipitate was diluted in 1 mL of PBS. The rest of the procedure was performed according to the manufacturer’s instructions. The results were obtained from three independent experiments.

IC50 [1]: 130 ± 10 nM
IC50 [6]: 250 ± 70 nM
IC50 [7]: 250 ± 80 nM
SMILES: Cc1nn(-c2ccc(S(=O)(=O)N3CCOCC3)cc2)c2nn3nnnc3nc12 [MM136]
increase in apoptotic fraction [2]: did not induce a significant increase
mean % of apoptotic cells [3]: 14.5 ± 0.7%
mean percentage of control group fluorescence intensity (MMP) ([4]; BxPC-3, 24 h incubation, 0.5IC50, ± SD): 82.83 ± 13.02%
mean percentage of control group fluorescence intensity (MMP) ([4]; BxPC-3, 24 h incubation, 2xIC50, ± SD): 57.67 ± 5.56%
mean percentage of control group fluorescence intensity (MMP) ([4]; BxPC-3, 24 h incubation, IC50, ± SD): 65.68 ± 4.58%
mean percentage of control group fluorescence intensity (MMP) ([4]; BxPC-3, 48 h incubation, 0.5IC50, ± SD): 69.08 ± 4.40%
mean percentage of control group fluorescence intensity (MMP) ([4]; BxPC-3, 48 h incubation, 2xIC50, ± SD): 61.83 ± 0.46%
mean percentage of control group fluorescence intensity (MMP) ([4]; BxPC-3, 48 h incubation, IC50, ± SD): 62.37 ± 0.05%
mean percentage of control group fluorescence intensity (MMP) ([5]; PC-3, 24 h incubation, 0.5IC50, ± SD): 96.3 ± 5.74%
mean percentage of control group fluorescence intensity (MMP) ([5]; PC-3, 24 h incubation, 2xIC50, ± SD): 86.9 ± 7.22%
mean percentage of control group fluorescence intensity (MMP) ([5]; PC-3, 24 h incubation, IC50, ± SD): 92.78 ± 0.9%
mean percentage of control group fluorescence intensity (MMP) ([5]; PC-3, 48 h incubation, 0.5IC50, ± SD): 81.34 ± 0.4%
mean percentage of control group fluorescence intensity (MMP) ([5]; PC-3, 48 h incubation, 2xIC50, ± SD): 47.38 ± 2.74%
mean percentage of control group fluorescence intensity (MMP) ([5]; PC-3, 48 h incubation, IC50, ± SD): 61.24 ± 3.62%
IC50 [8]: 220 ± 80 nM
IC50 [9]: 480 ± 90 nM
mean percentage of apoptotic cells (early and late apoptotic) ([10]; BxPC-3, 24 h incubation, control 10.3 ± 2.09%): 41.7 ± 0.17%
mean percentage of apoptotic cells (early and late apoptotic) ([10]; BxPC-3, 48 h incubation, control 8.3 ± 1.13%): 56.33 ± 4.96%
